# Where two headings read alike, the source gives them in different places.
# What was measured:
# [1] = test system: MOLT-3 (acute lymphoblastic leukemia); experiment: Cytotoxicity, XTT method, MOLT-3; type: cell-based; conditions: Homo sapiens; MOLT-3 cell line; XTT; mean ± s.d. (n = 3); read-out: IC50, MOLT-3
# Procedure: (§1) The in vitro cytotoxicity assay toward a panel of human cancer cell lines of several clerodane diterpenoids has been well investigated. Thus, the isolates in adequate amounts were tested against MOLT-3 (acute lymphoblastic leukemia), HuCCA-1 (cholangiocarcinoma), HepG2 (hepatocellular carcinoma), A549 (lung adenocarcinoma), HeLa (cervical carcinoma), and MDA-MB-231 (triple negative breast cancer) cancer cell lines using the MTT and XTT methods. Doxorubicin and etoposide were used as positive controls.
# (§2) The MTT (3-(4,5-dimethylthiazol-2-yl)-2,5-diphenyltetrazolium bromide) assay was employed for the cytotoxic evaluation against five human cancer cell lines, including HepG2, A549, MDA-MB-231, HeLa, and HuCCA-1, while the XTT (2,3-bis-(2-methoxy-4-nitro-5-sulphenyl)-(2H)-tetrazolium-5-carboxanilide) method was used for MOLT-3 cancer cell.
# [2] = test system: HuCCA-1 (cholangiocarcinoma); experiment: Cytotoxicity, MTT assay, HuCCA-1; type: cell-based, human; conditions: MTT, mean ± s.d. (n = 3), read-out: IC50, HuCCA-1
# Procedure: as §1, §2
# [3] = test system: A549 (lung adenocarcinoma); experiment: Cytotoxicity, MTT assay, A549; type: cell-based, human; conditions: mean ± s.d. (n = 3)
# Procedure: as §1, §2
# [4] = test system: HeLa (cervical carcinoma); experiment: Cytotoxicity, MTT assay, HeLa; type: cell-based, human; conditions: HeLa cell line, MTT, mean ± s.d. (n = 3), read-out: IC50, HeLa
# Procedure: as §1, §2
# [5] = test system: MDA-MB-231 (triple negative breast cancer); experiment: Cytotoxicity, MTT assay, MDA-MB-231; type: cell-based, human; conditions: MTT, mean ± s.d. (n = 3), read-out: IC50, MDA-MB-231
# Procedure: as §1, §2
# [6] = test system: HepG2 (hepatocellular carcinoma); experiment: Cytotoxicity, MTT assay, HepG2; type: cell-based, human; conditions: MTT, mean ± s.d. (n = 3), read-out: IC50, HepG2
# Procedure: as §1, §2
# [7] = test system: Staphylococcus aureus (ATCC 6538); experiment: Antibacterial broth microdilution (MIC/MBC), S. aureus; type: cell-based; conditions: ATCC6538
# Procedure: (§3) In addition, the isolates were also evaluated for their antibacterial activity towards three strains including Bacillus cereus (ATCC 11778), Staphylococcus aureus (ATCC 6538) and Staphylococcus epidermidis (ATCC 12228) using penicillin G and gentamicin as the antibiotic controls (Table 5). […] Finally, the inhibitory activity of aromatase by using a CYP19 screening kit was investigated. The aromatase (also called estrogen synthase) is responsible for converting the non-aromatic ring A of androgens to estrogens, which are related to the proliferation of breast cancer cells.
# (§4) The tested strains, Staphylococcus aureus (S. aureus) ATCC6538, Staphylococcus epidermidis (S. epidermidis) ATCC12228, and Bacillus cereus (B. cereus) ATCC11778 were obtained from the American Type Culture Collection (ATCC).
# (§5) All tested species were grown on Mueller Hinton Agar (MHA) and incubated at 37 °C for 18–24 h. The bacterial colonies suspension in sterile normal saline was diluted until they reached a 1 × 10^6 CFC/mL concentration, which was then compared to the McFarland scale. This step provided a standard bacterial suspension (1 × 10^6 CFU/mL), which was used for the following assays.
# (§6) The broth microdilution technique was used for the MIC and MBC determination, which was expressed according to Clinical and Laboratory Standards Institute (CLSI) standard M07 guideline. The compounds were prepared as a stock solution by dissolving in dimethyl sulfoxide (DMSO) with the concentration ranging from 0.195 to 200 µg/mL. DMSO and penicillin G or gentamicin were used as normal and standard drug control. […] Three replicates were performed for each experiment.
# [8] = test system: Staphylococcus epidermidis (ATCC 12228); experiment: Antibacterial broth microdilution (MIC/MBC), S. epidermidis; type: cell-based; conditions: ATCC12228
# Procedure: as §3, §4, §5, §6
# [9] = test system: Bacillus cereus (ATCC 11778); experiment: Antibacterial broth microdilution (MIC/MBC), B. cereus; type: cell-based; conditions: Bacillus cereus, ATCC11778
# Procedure: as §3, §4, §5, §6
# [10] = Homo sapiens, HuCC-A1, HuCCA-1 cell line
# [11] = Homo sapiens, A549, A549 cell line
# [12] = Homo sapiens, MDA-MB-231, MDA-MB-231 cell line
# [13] = Homo sapiens, HepG2, HepG2 cell line
SMILES,IC50 [1],"IC50 [2, 10]","IC50 [3, 11]","IC50 ([4]; Homo sapiens, HeLa)","IC50 [5, 12]","IC50 [6, 13]",MBC [7],MIC [7],MBC [8],MIC [8],MBC [9],MIC [9],IC50 ([2]; HuCCA-1 cell line),IC50 [4],IC50 ([3]; A549 cell line),IC50 ([5]; MDA-MB-231 cell line),IC50 ([6]; HepG2 cell line)
"C=CC(=C)CC[C@]1(C)[C@H](C)[C@@H](OC(=O)/C=C/c2ccc(O)cc2)[C@H](O)[C@@]23C(=C[C@H](OC(=O)CC(C)C)C[C@@H]12)[C@H](OC(C)=O)O[C@H]3OC(C)=O [Compound 14, Grewiifopene G]",1300 ± 500 nM,1800 ± 200 nM,2600 ± 100 nM,2400 ± 200 nM,2000 ± 100 nM,7300 ± 600 nM,–,–,–,–,–,–,–,–,–,–,–
"C=CC(C)=CCC1(C)C(C)C(OC(C)=O)C(OC(C)=O)C23C(=CC(OC(=O)CC(C)C)CC12)C(OC(C)=O)OC3OC(C)=O (stereo not shown) [Compound 15, Grewiifopene H]",3100 ± 400 nM,6600 ± 600 nM,9200 ± 1200 nM,8800 ± 600 nM,9100 ± 300 nM,38500 ± 2800 nM,> 200 µg/mL,> 200 µg/mL,> 200 µg/mL,> 200 µg/mL,> 200 µg/mL,> 200 µg/mL,–,–,–,–,–
"C=CC(C)=CCC1(C)C(C)C(OC(=O)C=Cc2ccc(O)cc2)C(O)C23C(=CC(OC(=O)CC(C)C)CC12)C(OC(C)=O)OC3OC(C)=O (stereo not shown) [Compound 17, Grewiifopene J]",1000 ± 100 nM,–,2400 ± 200 nM,–,2000 ± 100 nM,7100 ± 200 nM,–,–,–,–,–,–,400 ± 30 nM,2800 ± 30 nM,–,–,–
"C=CC(C)=CCC1(C)C(C)C(OC(=O)C=Cc2ccc(O)cc2)C(O)C23C(=CC(OC(=O)CC(C)C)CC12)C(OC(C)=O)OC3OC(C)=O (stereo not shown) [Compound 18, Grewiifopene K]",–,–,–,–,–,–,–,–,–,–,–,–,1600 ± 200 nM,6100 ± 300 nM,2200 ± 200 nM,2500 ± 100 nM,8900 ± 1200 nM
"COc1cccc2c1C(=O)c1c(O)c3c(c(O)c1C2=O)C[C@@](O)(C(=O)CO)C[C@@H]3O[C@H]1C[C@H](N)[C@H](O)[C@H](C)O1 [Doxorubicin, reference compound]",10 ± 2 nM,830 ± 70 nM,380 ± 20 nM,320 ± 10 nM,2090 ± 100 nM,520 ± 100 nM,–,–,–,–,–,–,–,–,–,–,–
"COc1cc([C@@H]2c3cc4c(cc3[C@@H](O[C@@H]3O[C@@H]5CO[C@@H](C)O[C@H]5[C@H](O)[C@H]3O)[C@H]3COC(=O)[C@H]23)OCO4)cc(OC)c1O [Etoposide, reference compound]",22 ± 4 nM,–,–,–,–,33500 ± 2550 nM,–,–,–,–,–,–,–,–,–,–,–
"CNC(C)C1CCC(N)C(OC2C(N)CC(N)C(OC3OCC(C)(O)C(NC)C3O)C2O)O1 (stereo not shown) [Gentamicin, reference compound]",–,–,–,–,–,–,0.024 µg/mL,0.024 µg/mL,0.024 µg/mL,0.024 µg/mL,0.048 µg/mL,0.048 µg/mL,–,–,–,–,–
"CC1(C)S[C@@H]2[C@H](NC(=O)Cc3ccccc3)C(=O)N2[C@H]1C(=O)O [Penicillin G, reference compound]",–,–,–,–,–,–,0.003 µg/mL,0.00076 µg/mL,1.56 µg/mL,0.195 µg/mL,3.12 µg/mL,3.12 µg/mL,–,–,–,–,–
